Structures can show the parent of a compound that is named as a salt. Where two headings read alike, the source gives them in different places.
Experiments:
[1] = experimental determination of log Pm/w using HMLC; assay type: physicochemical; conditions: for experimental log Pm/w, column temperature 25°C: pH 6, 25°C; for experimental log Pm/w, column temperature 35°C: pH 6, 35°C; for experimental log Pm/w, column temperature 30°C: pH 6, 30°C
[2] = experimental determination of log Pm/w using MELC; assay type: physicochemical; conditions: 0.18 M SDS, 10% acetonitrile, 1% octane, 0.3% TEA, pH 6, column 40°C
Procedure: (§1) Three micelle-based mobile phases were developed for the separation of this mixture. In all three cases, the separation was carried out on a Prontosil Kromaplus C18 column (250 × 4.6 mm) of particle size 5 µm, Leonberg, Germany, which was kept at 40°C. […] Separation of the three drugs was accomplished using 254 nm as a detection wavelength, adopting a flow rate of 1.5 ml min^−1.
(§2) Different actual SDS concentrations for each mobile phase (after subtracting the CMC of SDS at 40°C) were plotted versus the inverse of the capacity factor for each drug, using the optimized chromatographic conditions for MLC, HMLC and MELC, where pH was adjusted to 6, and the column temperature was kept at 40°C for the three separation methods.

[3] = parameters: method as in earlier work; conditions: cited from earlier work
[4] = parameters: method as in earlier work; conditions: cited from earlier work; remark: listed apart in the source
[5] = experimental determination of log Pm/w using MLC; assay type: physicochemical; conditions: 0.18 M SDS, 0.3% TEA, pH 6, column 40°C
Procedure: as §1, §2

[6] = HMLC, pH 3, 40°C, read-out: log P (experimental log Pm/w) pH 3
[7] = HMLC, pH 4, 40°C, read-out: log P (experimental log Pm/w) pH 4

| experimental log Pm/w HMLC ([1]; 0.18 M SDS, 10% acetonitrile, 0.3% TEA, pH 6, column 40°C) | chromatographic logP ([1]; HMLC, pH 5, 40°C, read-out: log P (experimental log Pm/w) pH 5) | experimental log Pm/w, column temperature 40°C ([1]; HMLC, pH 6, 40°C) | chromatographic logP ([1]; HMLC, pH 6, 40°C, read-out: log P (experimental log Pm/w) pH 6) | Structure (SMILES) | chromatographic logP [1, 6] | chromatographic logP [1, 7] | experimental log Pm/w, column temperature 25°C ([1]; HMLC) | experimental log Pm/w, column temperature 35°C ([1]; HMLC) | experimental log Pm/w MELC [2] | reported log P [3] | pka [4] | experimental log Pm/w MLC [5] | experimental log Pm/w, column temperature 30°C ([1]; HMLC) |
| --- | --- | --- | --- | --- | --- | --- | --- | --- | --- | --- | --- | --- | --- |
| 1.648 | 1.1 | 1.648 | 1.65 | c1cnc(N2CCN(Cc3ccc4c(c3)OCO4)CC2)nc1 [PRB, 2-[4-(1,3-benzodioxol-5-ylmethyl)piperazin-1-yl] pyrimidine] | 0.86 | 1.09 | 0.976 | 1.208 | 1.491 | 1.8 | 6.95 | 0.7334 | – |
| – | – | – | – | O=C1CCc2ccc(OCCCCN3CCN(c4cccc(Cl)c4Cl)CC3)cc2N1 [ARP, 7-[4-[4-(2,3-dichlorophenyl)piperazin-1-yl]butoxy]-3,4-dihydro-1H-quinolin-2-one] | 4.23 | 4.52 | 3.12 | – | 2.275 | – | 10 | 2.182 | 3.66 |
| – | – | – | – | CCCN[C@H]1CCc2nc(N)sc2C1 (racemic) [PRM, (RS)-4,5,6,7-tetrahydro-N-6-propyl-2,6-benzothiazolediamine dihydrochloride monohydrate] | – | – | 1.1714 | 2.228 | 1.316 | 2.34 | 10.5 | 0.9385 | 2.197 |
